Source: patent US6599536B1, “Therapy of estrogen-associated disorders” (Novogen Research Pty Ltd, priority 1998, dated 2003)

Columns and labels:
[1] = Plasma and urinary profiles of isoflavones after acute and chronic administration of isoflavone tablets (Promensil composition), HPLC
Protocol: The plasma and urinary profiles of isoflavones after acute and chronic administration of […] of isoflavones (genistein […], daidzein 0.5 mg, biochanin […], and formononetin 14 mg) in fourteen subjects was analysed. The composition corresponds to the Promensil product (Registered Trade Mark, Novogen Research Pty Ltd, Australia). Venous plasma and urine were collected at intervals for 24 h after which subjects commenced taking two tablets each day for two weeks and repeated plasma samples and urine were collected for a 48 h period after the last does. Plasma and urine isoflavones were assayed by HPLC.

cancer = conditions: cited from earlier work
[2] = system: human estrogen receptor (hER); conditions: cited from earlier work

SMILES: O=c1c(-c2ccc(O)cc2)coc2cc(O)cc(O)c12 [genistein]
- plasma concentrations relative to the methylated precursors ([1]; after acute dosing of the isoflavone tablets): much higher concentrations than their methylated precursors
- anti-cancer actions (cancer): potent anti-cancer actions
- estrogenic potency relative to daidzein [2]: approximately ten fold more estrogenic than daidzein

SMILES: O=c1c(-c2ccc(O)cc2)coc2cc(O)ccc12 [daidzein]
- plasma concentrations relative to the methylated precursors ([1]; in vivo): much higher concentrations than their methylated precursors
- anti-cancer actions (cancer): virtually none

SMILES: COc1ccc(-c2coc3cc(O)cc(O)c3c2=O)cc1 [biochanin]
- detectability in plasma and urine ([1]; in vivo): remained detectable in both plasma and urine at all times
- binding affinity for the hER compared to daidzein [2]: lower binding affinity
- estrogenic potency relative to daidzein [2]: about the same estrogenic potency as daidzein

SMILES: COc1ccc(-c2coc3cc(O)ccc3c2=O)cc1 [formononetin]
- detectability in plasma and urine ([1]; in vivo): remained detectable in both plasma and urine at all times
